system: HEK293T cells carrying the ATF4 luciferase reporter; experiment: ATF4-Luc assay (in vitro model of VWMD); format: cell-based, human; details: Homo sapiens, HEK-293T, 1 μg/mL tunicamycin, 7 hours, One Glo luminescence
In short: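 Stable HEK293T line expressing firefly luciferase behind the human ATF4 5′-UTR, treated with 1 μg/mL tunicamycin plus compound for 7 hours. Luminescence read with One Glo; EC50 determined.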

Structure (SMILES) | EC50 [nM]
O=C(CO[C@H]1C[C@@H](OC(F)(F)F)C1)N[C@H]1CC[C@H](NC(=O)[C@H]2C[C@@H](O)c3cc(Cl)ccc3O2)CC1 [Compound 214, (2R,4R)-6-chloro-4-hydroxy-N-[trans-4-(2-{[cis-3-(trifluoromethoxy)cyclobutyl]oxy}acetamido)cyclohexyl]-3,4-dihydro-2H-1-benzopyran-2-carboxamide] | 10 to 50
O=C(N[C@H]1CC[C@H](C(=O)N[C@H]2C[C@@H](OC(F)(F)F)C2)CC1)[C@H]1C[C@@H](O)c2cc(Cl)ccc2O1 [Compound 215, (2R,4R)-6-chloro-4-hydroxy-N-[trans-4-{[cis-3-(trifluoromethoxy)cyclobutyl]carbamoyl}cyclohexyl]-3,4-dihydro-2H-1-benzopyran-2-carboxamide] | < 10
O=C1C[C@H](C(=O)NC23CC(C(=O)N[C@H]4C[C@@H](OC(F)(F)F)C4)(C2)C3)Oc2ccc(Cl)cc21 [Compound 216, (2R)-6-chloro-4-oxo-N-(3-{[cis-3-(trifluoromethoxy)cyclobutyl]carbamoyl}bicyclo[1.1.1]pentan-1-yl)-3,4-dihydro-2H-1-benzopyran-2-carboxamide] | > 2000
O=C(NC12CC(c3nc([C@H]4C[C@@H](OC(F)(F)F)C4)no3)(C1)C2)[C@@H]1C[C@@H](O)c2cc(Cl)ccc2O1 [Compound 217, (2S,4R)-6-chloro-4-hydroxy-N-(3-{3-[cis-3-(trifluoromethoxy)cyclobutyl]-1,2,4-oxadiazol-5-yl}bicyclo[1.1.1]pentan-1-yl)-3,4-dihydro-2H-1-benzopyran-2-carboxamide] | 50 to 250
O=C(NC12CC(c3nc([C@H]4C[C@@H](OC(F)(F)F)C4)no3)(C1)C2)[C@@H]1C[C@H](O)c2cc(Cl)ccc2O1 [Compound 218, (2S,4S)-6-chloro-4-hydroxy-N-(3-{3-[cis-3-(trifluoromethoxy)cyclobutyl]-1,2,4-oxadiazol-5-yl}bicyclo[1.1.1]pentan-1-yl)-3,4-dihydro-2H-1-benzopyran-2-carboxamide] | 500 to 2000
O=C(CO[C@H]1C[C@@H](OC(F)(F)F)C1)NC12CCC(NC(=O)[C@H]3C[C@@H](O)c4cc(Cl)ccc4O3)(CC1)[C@@H](O)C2 [Compound 220, (2R,4R)-6-chloro-4-hydroxy-N-[(2S)-2-hydroxy-4-(2-{[cis-3-(trifluoromethoxy)cyclobutyl]oxy}acetamido)bicyclo[2.2.2]octan-1-yl]-3,4-dihydro-2H-1-benzopyran-2-carboxamide] | < 10
O=C1C[C@H](C(=O)NC23CCC(C(=O)N[C@H]4C[C@@H](OC(F)(F)F)C4)(CC2)CC3)Oc2ccc(Cl)cc21 [Compound 221, (2R)-6-chloro-4-oxo-N-(4-{[cis-3-(trifluoromethoxy)cyclobutyl]carbamoyl}bicyclo[2.2.2]octan-1-yl)-3,4-dihydro-2H-1-benzopyran-2-carboxamide] | 50 to 250
O=C(NC12CCC(C(=O)N[C@H]3C[C@@H](OC(F)(F)F)C3)(CC1)CC2)[C@H]1C[C@@H](O)c2cc(Cl)ccc2O1 [Compound 222, (2R,4R)-6-chloro-4-hydroxy-N-(4-{[cis-3-(trifluoromethoxy)cyclobutyl]carbamoyl}bicyclo[2.2.2]octan-1-yl)-3,4-dihydro-2H-1-benzopyran-2-carboxamide] | 10 to 50
O=C(CO[C@H]1C[C@@H](OC(F)(F)F)C1)NC12CCC(NC(=O)[C@H]3CC(=O)c4cc(Cl)ccc4O3)(CC1)[C@@H](O)C2 [Compound 223, (2R)-6-chloro-N-[(2S)-2-hydroxy-4-(2-{[cis-3-(trifluoromethoxy)cyclobutyl]oxy}acetamido)bicyclo[2.2.2]octan-1-yl]-4-oxo-3,4-dihydro-2H-1-benzopyran-2-carboxamide] | 10 to 50
O=C1C[C@H](C(=O)NC23CC(N4CCC(c5ccc(Cl)cc5)C4=O)(C2)C3)Oc2ccc(Cl)cc21 (stereo partly drawn) [Compound 224, (2R)-6-chloro-N-{3-[3-(4-chlorophenyl)-2-oxopyrrolidin-1-yl]bicyclo[1.1.1]pentan-1-yl}-4-oxo-3,4-dihydro-2H-1-benzopyran-2-carboxamide] | > 2000
O=C(NC12CC(C3=NOC([C@H]4C[C@@H](O)C4)C3)(C1)C2)[C@H]1C[C@@H](O)c2cc(Cl)ccc2O1 (stereo partly drawn) [Compound 227, (2R,4R)-6-chloro-4-hydroxy-N-(3-{5-[cis-3-hydroxycyclobutyl]-4,5-dihydro-1,2-oxazol-3-yl}bicyclo[1.1.1]pentan-1-yl)-3,4-dihydro-2H-1-benzopyran-2-carboxamide] | > 2000
O=C(NC12CC(C3=NOC([C@H]4C[C@@H](O)C4)C3)(C1)C2)[C@@H]1C[C@@H](O)c2cc(Cl)ccc2O1 (stereo partly drawn) [Compound 228, (2S,4R)-6-chloro-4-hydroxy-N-(3-{5-[cis-3-hydroxycyclobutyl]-4,5-dihydro-1,2-oxazol-3-yl}bicyclo[1.1.1]pentan-1-yl)-3,4-dihydro-2H-1-benzopyran-2-carboxamide] | > 2000
O=C(NC12CC(c3nc([C@H]4C[C@@H](OC(F)(F)F)C4)no3)(C1)C2)[C@H]1C[C@@H](O)c2cc(Cl)ccc2O1 [Compound 229, (2R,4R)-6-chloro-4-hydroxy-N-(3-{3-[cis-3-(trifluoromethoxy)cyclobutyl]-1,2,4-oxadiazol-5-yl}bicyclo[1.1.1]pentan-1-yl)-3,4-dihydro-2H-1-benzopyran-2-carboxamide] | 10 to 50
O=C(NC12CC(c3nc(-c4ccc(Cl)c(F)c4)no3)(C1)C2)[C@@H]1C[C@@H](O)c2cc(Cl)ccc2O1 [Compound 230, (2S,4R)-6-chloro-N-{3-[3-(4-chloro-3-fluorophenyl)-1,2,4-oxadiazol-5-yl]bicyclo[1.1.1]pentan-1-yl}-4-hydroxy-3,4-dihydro-2H-1-benzopyran-2-carboxamide] | 50 to 250
O=C(NC12CC(n3cnc(-c4ccc(C(F)(F)F)nc4)c3)(C1)C2)[C@@H]1C[C@@H](O)c2cc(Cl)ccc2O1 [Compound 231, (2S,4R)-6-chloro-4-hydroxy-N-(3-{4-[6-(trifluoromethyl)pyridin-3-yl]-1H-imidazol-1-yl}bicyclo[1.1.1]pentan-1-yl)-3,4-dihydro-2H-1-benzopyran-2-carboxamide] | 10 to 50
O=C(NC12CC(C3=NOC([C@H]4C[C@@H](OC(F)(F)F)C4)C3)(C1)C2)[C@H]1C[C@@H](O)c2cc(Cl)ccc2O1 (stereo partly drawn) [Compound 232, (2R,4R)-6-chloro-4-hydroxy-N-{3-(5-[cis-3-(trifluoromethoxy)cyclobutyl]-4,5-dihydro-1,2-oxazol-3-yl}bicyclo[1.1.1]pentan-1-yl)-3,4-dihydro-2H-1-benzopyran-2-carboxamide] | 50 to 250
O=C(NC12CC(C3=NOC([C@H]4C[C@@H](OC(F)(F)F)C4)C3)(C1)C2)[C@@H]1C[C@@H](O)c2cc(Cl)ccc2O1 (stereo partly drawn) [Compound 233, (2S,4R)-6-chloro-4-hydroxy-N-(3-{5-[cis-3-(trifluoromethoxy)cyclobutyl]-4,5-dihydro-1,2-oxazol-3-yl}bicyclo[1.1.1]pentan-1-yl)-3,4-dihydro-2H-1-benzopyran-2-carboxamide] | 500 to 2000
O=C(NC12CC(c3cc([C@H]4C[C@@H](OC(F)(F)F)C4)on3)(C1)C2)[C@H]1C[C@@H](O)c2cc(Cl)ccc2O1 [Compound 234, (2R,4R)-6-chloro-4-hydroxy-N-{3-(5-[cis-3-(trifluoromethoxy)cyclobutyl]-1,2-oxazol-3-yl}bicyclo[1.1.1]pentan-1-yl)-3,4-dihydro-2H-1-benzopyran-2-carboxamide] | 10 to 50
O=C(NC12CC(n3ncc4cc(Cl)ccc43)(C1)C2)[C@H]1C[C@@H](O)c2cc(Cl)ccc2O1 [Compound 235, (2R,4R)-6-chloro-N-[3-(5-chloro-1H-indazol-1-yl)bicyclo[1.1.1]pentan-1-yl]-4-hydroxy-3,4-dihydro-2H-1-benzopyran-2-carboxamide] | 50 to 250
O=C(NC12CC(n3cc(-c4ccc(Cl)cc4)cn3)(C1)C2)[C@@H]1C[C@@H](O)c2cc(Cl)ccc2O1 [Compound 236, (2S,4R)-6-chloro-N-{3-[4-(4-chlorophenyl)-1H-pyrazol-1-yl]bicyclo[1.1.1]pentan-1-yl}-4-hydroxy-3,4-dihydro-2H-1-benzopyran-2-carboxamide] | < 10
O=C(NC12CC(c3cnn(-c4ccc(Cl)c(F)c4)c3)(C1)C2)[C@H]1C[C@@H](O)c2cc(Cl)ccc2O1 [Compound 237, (2R,4R)-6-chloro-N-{3-[1-(4-chloro-3-fluorophenyl)-1H-pyrazol-4-yl]bicyclo[1.1.1]pentan-1-yl}-4-hydroxy-3,4-dihydro-2H-1-benzopyran-2-carboxamide] | < 10
O=C(NC12CC(c3cnn(-c4ccc(Cl)c(F)c4)c3)(C1)C2)[C@@H]1C[C@@H](O)c2cc(Cl)ccc2O1 [Compound 238, (2S,4R)-6-chloro-N-{3-[1-(4-chloro-3-fluorophenyl)-1H-pyrazol-4-yl]bicyclo[1.1.1]pentan-1-yl}-4-hydroxy-3,4-dihydro-2H-1-benzopyran-2-carboxamide] | 10 to 50
O=C(CO[C@H]1C[C@@H](OC(F)(F)F)C1)NC12CCC(NC(=O)[C@@H]3C[C@@H](O)c4cc(Cl)ccc4O3)(CC1)CC2 [Compound 239, (2S,4R)-6-chloro-4-hydroxy-N-[4-(2-{[cis-3-(trifluoromethoxy)cyclobutyl]oxy}acetamido)bicyclo[2.2.2]octan-1-yl]-3,4-dihydro-2H-1-benzopyran-2-carboxamide] | 10 to 50
O=C(NC12CC(n3ccc(-c4ccc(Cl)cc4)c3)(C1)C2)[C@H]1C[C@@H](O)c2cc(Cl)ccc2O1 [Compound 240, (2R,4R)-6-chloro-N-{3-[3-(4-chlorophenyl)-1H-pyrrol-1-yl]bicyclo[1.1.1]pentan-1-yl}-4-hydroxy-3,4-dihydro-2H-1-benzopyran-2-carboxamide] | < 10
O=C(NC12CC(n3ccc(-c4ccc(Cl)cc4)c3)(C1)C2)[C@@H]1C[C@@H](O)c2cc(Cl)ccc2O1 [Compound 241, (2S,4R)-6-chloro-N-{3-[3-(4-chlorophenyl)-1H-pyrrol-1-yl]bicyclo[1.1.1]pentan-1-yl}-4-hydroxy-3,4-dihydro-2H-1-benzopyran-2-carboxamide] | 50 to 250

Source: US20200347043A1, “MODULATORS OF THE INTEGRATED STRESS PATHWAY” (Calico Life Sciences LLC, priority 2019, published 2020)
